According to patent publication US11655235B2, “Pyrrolidine and piperidine compounds” (YUHAN CORPORATION, priority 2019, dated 2023):

What was measured:
Assay type in all cases: biochemical
recombinant human PREP = molecular target: T1, recombinant human PREP (Homo sapiens, UniProt P48147); experiment: PREP inhibition, fluorogenic substrate Z-Gly-Pro-AMC; conditions: Inhibitory Activity (IC50, nM) PREP, 25° C., Z-Gly-Pro-AMC substrate
T1 construct: purchased R&D System
T1 sequence (P48147 1-710): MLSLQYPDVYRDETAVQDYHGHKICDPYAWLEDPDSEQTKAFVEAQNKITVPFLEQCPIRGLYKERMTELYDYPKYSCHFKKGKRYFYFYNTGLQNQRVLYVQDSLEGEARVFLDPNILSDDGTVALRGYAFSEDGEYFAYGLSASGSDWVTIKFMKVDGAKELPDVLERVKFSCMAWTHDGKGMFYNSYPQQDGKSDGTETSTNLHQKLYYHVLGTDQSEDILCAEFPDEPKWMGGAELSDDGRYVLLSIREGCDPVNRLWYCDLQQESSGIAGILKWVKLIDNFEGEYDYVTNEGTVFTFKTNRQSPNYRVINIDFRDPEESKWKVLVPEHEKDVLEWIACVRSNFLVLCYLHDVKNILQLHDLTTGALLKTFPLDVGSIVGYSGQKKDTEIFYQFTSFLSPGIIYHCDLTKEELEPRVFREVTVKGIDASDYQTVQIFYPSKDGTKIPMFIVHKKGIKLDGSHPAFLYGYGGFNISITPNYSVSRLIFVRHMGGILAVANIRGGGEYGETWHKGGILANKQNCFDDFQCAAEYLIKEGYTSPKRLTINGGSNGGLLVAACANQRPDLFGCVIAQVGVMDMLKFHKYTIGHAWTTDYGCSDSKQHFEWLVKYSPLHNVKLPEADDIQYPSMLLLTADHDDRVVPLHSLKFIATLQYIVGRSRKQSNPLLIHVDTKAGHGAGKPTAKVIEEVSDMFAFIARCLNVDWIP
How it was run: (§1)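 Enzyme per reaction: 50 ng DPP9, 20 ng DPP8, 10 ng each DPP7 and PREP. Compounds were serially diluted (8 points, up to 0.5% DMSO) and incubated at 25 °C.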

recombinant human DPP8 = molecular target: T2, recombinant human DPP8 (Homo sapiens, UniProt Q6V1X1); experiment: DPP8 inhibition, fluorogenic substrate Z-Ala-Pro-AMC; conditions: 25° C., Z-Ala-Pro-AMC substrate
T2 construct: purchased PBS Bioscience
T2 sequence (Q6V1X1 whole entry): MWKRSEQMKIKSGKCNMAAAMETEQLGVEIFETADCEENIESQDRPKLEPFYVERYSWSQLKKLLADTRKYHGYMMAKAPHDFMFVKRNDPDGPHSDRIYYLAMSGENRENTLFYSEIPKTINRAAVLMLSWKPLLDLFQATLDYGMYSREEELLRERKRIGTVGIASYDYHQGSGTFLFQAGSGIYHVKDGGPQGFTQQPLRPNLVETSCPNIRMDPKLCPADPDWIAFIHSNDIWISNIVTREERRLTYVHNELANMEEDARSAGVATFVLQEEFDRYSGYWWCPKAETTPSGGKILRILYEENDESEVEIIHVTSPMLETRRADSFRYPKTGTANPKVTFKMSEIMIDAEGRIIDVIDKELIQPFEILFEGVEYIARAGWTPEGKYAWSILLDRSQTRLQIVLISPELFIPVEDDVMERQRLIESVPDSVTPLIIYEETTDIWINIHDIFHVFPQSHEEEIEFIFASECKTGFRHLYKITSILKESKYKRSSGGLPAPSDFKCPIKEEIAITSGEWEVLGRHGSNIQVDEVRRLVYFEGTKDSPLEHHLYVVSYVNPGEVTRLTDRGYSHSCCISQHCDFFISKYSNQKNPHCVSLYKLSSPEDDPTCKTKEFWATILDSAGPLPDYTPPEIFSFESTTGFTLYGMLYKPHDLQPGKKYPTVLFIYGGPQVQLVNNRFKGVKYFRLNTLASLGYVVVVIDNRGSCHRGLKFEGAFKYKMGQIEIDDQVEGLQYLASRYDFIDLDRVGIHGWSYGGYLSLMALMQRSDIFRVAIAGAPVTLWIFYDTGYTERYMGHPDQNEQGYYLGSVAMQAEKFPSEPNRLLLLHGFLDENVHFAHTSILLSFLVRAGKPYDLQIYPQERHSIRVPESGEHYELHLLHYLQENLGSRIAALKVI
How it was run: as §1

recombinant human DPP9 = molecular target: T3, recombinant human DPP9 (Homo sapiens, UniProt Q86TI2); experiment: DPP9 inhibition, fluorogenic substrate H-Gly-Pro-AMC; conditions: 25° C., H-Gly-Pro-AMC substrate
T3 construct: purchased R&D Systems
T3 sequence (Q86TI2 whole entry): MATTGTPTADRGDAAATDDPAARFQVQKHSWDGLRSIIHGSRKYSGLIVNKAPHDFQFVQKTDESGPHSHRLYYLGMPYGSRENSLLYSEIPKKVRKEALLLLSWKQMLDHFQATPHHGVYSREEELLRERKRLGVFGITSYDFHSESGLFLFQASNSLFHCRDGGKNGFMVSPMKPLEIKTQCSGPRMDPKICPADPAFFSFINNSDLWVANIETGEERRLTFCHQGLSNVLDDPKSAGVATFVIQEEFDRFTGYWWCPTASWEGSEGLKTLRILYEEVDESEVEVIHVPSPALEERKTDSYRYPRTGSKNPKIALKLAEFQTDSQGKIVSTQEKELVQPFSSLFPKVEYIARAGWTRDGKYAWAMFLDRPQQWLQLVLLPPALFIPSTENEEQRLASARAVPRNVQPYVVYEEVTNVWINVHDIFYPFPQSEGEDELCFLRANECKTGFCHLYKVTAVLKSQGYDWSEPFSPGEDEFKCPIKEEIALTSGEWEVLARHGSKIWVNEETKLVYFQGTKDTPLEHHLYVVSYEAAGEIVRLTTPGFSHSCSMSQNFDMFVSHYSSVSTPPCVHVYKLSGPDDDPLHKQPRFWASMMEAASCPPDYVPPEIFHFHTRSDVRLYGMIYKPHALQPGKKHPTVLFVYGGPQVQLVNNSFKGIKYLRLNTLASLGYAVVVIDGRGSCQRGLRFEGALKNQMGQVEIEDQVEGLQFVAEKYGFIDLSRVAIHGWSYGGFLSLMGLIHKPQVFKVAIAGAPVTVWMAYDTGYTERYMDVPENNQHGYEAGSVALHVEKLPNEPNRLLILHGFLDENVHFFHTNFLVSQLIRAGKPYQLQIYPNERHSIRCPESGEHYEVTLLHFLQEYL
How it was run: as §1

recombinant human DPP7 = molecular target: T4, recombinant human DPP7 (Homo sapiens, UniProt Q9UHL4); experiment: DPP7 inhibition, fluorogenic substrate Lys-Pro-AMC
T4 construct: purchased R&D Systems
How it was run: as §1

Recombinant human FAP = molecular target: T5, Recombinant human FAP (Homo sapiens, UniProt Q12884); experiment: FAP inhibition, fluorogenic substrate Z-Gly-Pro-AMC; conditions: 25° C., Z-Gly-Pro-AMC substrate
T5 construct: purchased R&D systems
T5 sequence (Q12884 1-760): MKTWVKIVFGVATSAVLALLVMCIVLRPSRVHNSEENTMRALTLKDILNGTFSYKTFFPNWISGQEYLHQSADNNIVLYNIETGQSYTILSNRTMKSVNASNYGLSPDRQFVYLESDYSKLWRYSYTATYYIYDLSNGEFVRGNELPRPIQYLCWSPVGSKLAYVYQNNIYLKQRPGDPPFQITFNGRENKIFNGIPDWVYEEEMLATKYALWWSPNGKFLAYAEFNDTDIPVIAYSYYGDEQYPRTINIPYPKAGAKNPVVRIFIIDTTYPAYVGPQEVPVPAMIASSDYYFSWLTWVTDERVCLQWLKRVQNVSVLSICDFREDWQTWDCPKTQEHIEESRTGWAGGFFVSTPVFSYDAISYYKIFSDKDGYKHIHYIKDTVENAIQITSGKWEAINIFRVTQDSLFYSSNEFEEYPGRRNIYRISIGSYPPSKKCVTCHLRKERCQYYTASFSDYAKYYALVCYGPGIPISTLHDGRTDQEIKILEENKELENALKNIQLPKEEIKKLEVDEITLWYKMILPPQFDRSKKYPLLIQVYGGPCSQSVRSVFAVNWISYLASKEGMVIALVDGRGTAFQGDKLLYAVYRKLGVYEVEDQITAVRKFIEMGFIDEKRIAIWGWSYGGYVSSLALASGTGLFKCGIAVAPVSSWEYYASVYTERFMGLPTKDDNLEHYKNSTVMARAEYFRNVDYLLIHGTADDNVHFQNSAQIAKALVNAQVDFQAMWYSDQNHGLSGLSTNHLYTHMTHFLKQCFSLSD
How it was run: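 Recombinant human FAP, 10 ng per reaction, in 50 mM Tris pH 7.5 with 1 M NaCl and 1 mg/ml BSA at 25° C; substrate Z-Gly-Pro-AMC, ≤0.1% DMSO. AMC fluorescence read at ex 380/em 460 nm; % signal-rate decrease vs no-inhibitor control, 8-point curves fitted to a four-parameter logistic for IC50.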

DPP4 = DPP4 (Homo sapiens, UniProt P27487); experiment: DPP4 inhibition, fluorogenic substrate H-Gly-Pro-AMC; design: purchased R&D Systems; conditions: for IC50: 25° C., H-Gly-Pro-AMC substrate
Chain of DPP4 (P27487 whole entry): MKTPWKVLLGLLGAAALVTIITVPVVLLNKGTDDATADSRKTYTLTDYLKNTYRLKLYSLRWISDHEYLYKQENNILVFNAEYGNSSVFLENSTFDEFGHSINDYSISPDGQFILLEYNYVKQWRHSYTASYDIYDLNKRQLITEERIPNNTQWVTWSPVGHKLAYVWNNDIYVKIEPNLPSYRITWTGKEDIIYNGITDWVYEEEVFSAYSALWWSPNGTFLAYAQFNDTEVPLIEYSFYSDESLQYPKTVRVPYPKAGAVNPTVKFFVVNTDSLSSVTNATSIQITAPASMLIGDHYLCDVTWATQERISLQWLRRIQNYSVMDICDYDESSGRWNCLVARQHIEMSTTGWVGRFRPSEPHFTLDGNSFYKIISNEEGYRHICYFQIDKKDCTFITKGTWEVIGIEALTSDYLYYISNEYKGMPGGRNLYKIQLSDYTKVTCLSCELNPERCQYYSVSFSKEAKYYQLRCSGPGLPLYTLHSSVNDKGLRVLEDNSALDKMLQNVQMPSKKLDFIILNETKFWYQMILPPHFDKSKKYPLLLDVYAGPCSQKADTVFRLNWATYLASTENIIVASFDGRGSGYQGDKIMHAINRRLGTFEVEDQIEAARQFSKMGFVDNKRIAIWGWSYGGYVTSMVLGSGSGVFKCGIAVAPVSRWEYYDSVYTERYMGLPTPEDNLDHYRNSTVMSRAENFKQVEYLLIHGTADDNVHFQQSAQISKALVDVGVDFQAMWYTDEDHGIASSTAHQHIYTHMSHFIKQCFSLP

IC50 (recombinant human PREP) | IC50 (recombinant human DPP8) | IC50 (recombinant human DPP9) | IC50 (recombinant human DPP7) | IC50 (Recombinant human FAP) | IC50 (DPP4) | inhibition at 1 µM (DPP4; read-out: hDPP4 inhibition % at 1 μM) | SMILES
6960 nM | > 10 µM | > 100 µM | 1.61 µM | 0.00624 µM | > 1 µM |  | N#C[C@@H]1CCCN1C(=O)CN1CC[C@@H](Nc2cnc3ccccc3c2)C1 [Example 17, (S)-1-(2-((R)-3-(quinolin-3-ylamino)pyrrolidin-1-yl)acetyl)pyrrolidine-2-carbonitrile]
11800 nM | 45.2 µM | 44 µM | 0.206 µM | 0.00574 µM | > 1 µM |  | N#C[C@@H]1CCCN1C(=O)CN1CC[C@H](Nc2cncc3ccccc23)C1 [Example 19, (S)-1-(2-((S)-3-(isoquinolin-4-ylamino)pyrrolidin-1-yl)acetyl)pyrrolidine-2-carbonitrile]
7230 nM | 23.1 µM | 69.1 µM | 2.12 µM | 0.00453 µM | > 1 µM |  | N#C[C@@H]1CCCN1C(=O)CN1CC[C@H](Nc2cccc3sccc23)C1 [Example 20, (S)-1-(2-((S)-3-(benzo[b]thiophen-4-ylamino)pyrrolidin-1-yl)acetyl)pyrrolidine-2-carbonitrile]
5460 nM | 77.3 µM | 68 µM | 0.524 µM | 0.00212 µM | > 1 µM |  | N#C[C@@H]1CCCN1C(=O)CN1CC[C@@H](Nc2cncc3ccccc23)C1 [Example 24, (S)-1-(2-((R)-3-(isoquinolin-4-ylamino)pyrrolidin-1-yl)acetyl)pyrrolidine-2-carbonitrile]
12100 nM | 20.7 µM | 27.4 µM | 1.22 µM | 0.00162 µM |  | 5.4% | N#C[C@@H]1CCCN1C(=O)CN1CC[C@H](Nc2cccc3ncccc23)C1 [Example 27, (S)-1-(2-((S)-3-(quinolin-5-ylamino)pyrrolidin-1-yl)acetyl)pyrrolidine-2-carbonitrile]
6600 nM | 18.6 µM | 8.24 µM | 0.346 µM | 0.00182 µM | 2.63 µM |  | N#C[C@@H]1C[C@H](F)CN1C(=O)CN1CC[C@H](Nc2cncc3ccoc23)C1 [Example 28, (2S,4S)-4-fluoro-1-(2-((S)-3-(furo[3,2-c]pyridin-7-ylamino)pyrrolidin-1-yl)acetyl)pyrrolidin-2-carbonitrile]
6170 nM | 28.7 µM | 17.5 µM | 0.728 µM | 0.00622 µM | > 100 µM |  | N#C[C@@H]1C[C@H](F)CN1C(=O)CN1CC[C@H](NC(=O)c2coc3cc(F)ccc23)C1 [Example 29, N—((S)-1-(2-((2S,4S)-2-cyano-4-fluoropyrrolidin-1-yl)-2-oxoethyl)pyrrolidin-3-yl)-6-fluorobenzofuran-3-carboxamide]
6450 nM | 21.8 µM | > 100 µM | 3.55 µM | 0.0327 µM | > 1 µM |  | N#C[C@@H]1CCCN1C(=O)CN1CC[C@H](NC(=O)c2cc3ccccc3s2)C1 [Example 36, N—((S)-1-(2-((S)-2-cyanopyrrolidin-1-yl)-2-oxoethyl)pyrrolidin-3-yl)benzo[b]thiophene-2-carboxamide]
8260 nM | 72.8 µM | > 100 µM | 5.17 µM | 0.0118 µM | > 1 µM |  | N#C[C@@H]1CCCN1C(=O)CN1CC[C@H](NC(=O)c2coc3ccccc23)C1 [Example 37, N—((S)-1-(2-((S)-2-cyanopyrrolidin-1-yl)-2-oxoethyl)pyrrolidin-3-yl)benzofuran-3-carboxamide]
3190 nM | 62.1 µM | > 100 µM | 4.13 µM | 0.0037 µM | > 1 µM |  | N#C[C@@H]1CCCN1C(=O)CN1CC[C@H](NC(=O)c2csc3ccccc23)C1 [Example 41, N—((S)-1-(2-((S)-2-cyanopyrrolidin-1-yl)-2-oxoethyl)pyrrolidin-3-yl)benzo[b]thiophene-3-carboxamide]
